Laboratory results reported in US7872018B2, “Compounds and methods for kinase modulation, and indications therefor” (Plexxikon, Inc., priority 2006, dated 2011).

What was measured:
[1] = biological target: FGFR (Homo sapiens, UniProt P11362); test: FGFR kinase activity assay; assay type: biochemical; conditions: under the test conditions employed; read-out: IC50 toward kinase FGFR
[2] = biological target: T1, Fms (Homo sapiens, UniProt P07333); test: Fms biochemical assay (AlphaScreen or 33P-ATP); conditions: under the test conditions employed; read-out: IC50 toward kinase Fms
T1 construct: purchased Upstate Biotech 14-551
Text: Each sample was at 5% DMSO.

[3] = biological target: Kdr (Homo sapiens, UniProt P35968); test: Kdr kinase activity assay; assay type: biochemical; conditions: under the test conditions employed; read-out: IC50 toward kinase Kdr
Kdr, sequence (P35968 20-1356): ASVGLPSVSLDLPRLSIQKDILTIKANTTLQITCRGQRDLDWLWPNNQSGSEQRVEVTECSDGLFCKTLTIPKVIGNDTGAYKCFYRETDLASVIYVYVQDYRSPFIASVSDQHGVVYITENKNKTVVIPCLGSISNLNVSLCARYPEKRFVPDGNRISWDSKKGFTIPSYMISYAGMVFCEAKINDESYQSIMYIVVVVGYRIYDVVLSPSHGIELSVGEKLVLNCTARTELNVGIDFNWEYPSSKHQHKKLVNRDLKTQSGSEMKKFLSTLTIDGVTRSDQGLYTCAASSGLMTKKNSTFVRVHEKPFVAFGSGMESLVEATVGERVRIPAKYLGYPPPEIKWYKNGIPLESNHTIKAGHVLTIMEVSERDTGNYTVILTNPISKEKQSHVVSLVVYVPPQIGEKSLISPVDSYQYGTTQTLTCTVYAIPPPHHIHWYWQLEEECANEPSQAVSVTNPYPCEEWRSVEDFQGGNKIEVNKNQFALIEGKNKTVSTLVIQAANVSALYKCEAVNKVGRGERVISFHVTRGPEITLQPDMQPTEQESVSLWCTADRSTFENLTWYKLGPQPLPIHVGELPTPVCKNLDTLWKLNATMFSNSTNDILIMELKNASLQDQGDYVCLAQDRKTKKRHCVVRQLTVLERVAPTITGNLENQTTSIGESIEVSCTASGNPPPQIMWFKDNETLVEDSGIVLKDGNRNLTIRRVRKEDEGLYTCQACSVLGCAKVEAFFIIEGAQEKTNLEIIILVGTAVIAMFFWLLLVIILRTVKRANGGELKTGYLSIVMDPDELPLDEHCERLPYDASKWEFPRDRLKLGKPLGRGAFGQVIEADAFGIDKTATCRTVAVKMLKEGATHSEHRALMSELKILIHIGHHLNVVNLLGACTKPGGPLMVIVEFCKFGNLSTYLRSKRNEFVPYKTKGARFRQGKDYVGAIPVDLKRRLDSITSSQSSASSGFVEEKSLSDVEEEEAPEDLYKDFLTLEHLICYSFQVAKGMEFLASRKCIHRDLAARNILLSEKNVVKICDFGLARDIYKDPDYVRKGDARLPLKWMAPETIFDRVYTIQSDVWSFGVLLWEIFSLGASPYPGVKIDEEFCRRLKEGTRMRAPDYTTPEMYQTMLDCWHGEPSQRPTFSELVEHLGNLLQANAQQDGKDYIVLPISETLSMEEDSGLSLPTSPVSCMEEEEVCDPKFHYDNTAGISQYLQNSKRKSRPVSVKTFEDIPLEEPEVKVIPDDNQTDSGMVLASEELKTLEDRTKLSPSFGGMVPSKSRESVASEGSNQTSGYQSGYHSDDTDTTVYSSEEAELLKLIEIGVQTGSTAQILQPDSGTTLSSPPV

[4] = biological target: T2, Kit (Homo sapiens, UniProt P10721); test: c-kit biochemical assay (AlphaScreen or 33P-ATP); conditions: under the test conditions employed; read-out: IC50 toward kinase Kit
T2 construct: P1332.N6 BI PTP KIT M552-K948-X COD; made in house; host or cells: E. coli BL21(DE3)RIL, co-expressed with PTP1B
Procedure, shortened: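 Kinase activity read by AlphaScreen or 33P-ATP incorporation, with c-kit enzyme at 1 ng per sample. The enzyme was either commercial or a recombinant human kit construct made from a gene-synthesized coding sequence.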

[5] = biological target: B-Raf (Homo sapiens, UniProt P15056); test: B-Raf kinase activity assay; assay type: biochemical; conditions: under the test conditions employed; read-out: IC50 toward kinase B-Raf
B-Raf, sequence (P15056 whole entry): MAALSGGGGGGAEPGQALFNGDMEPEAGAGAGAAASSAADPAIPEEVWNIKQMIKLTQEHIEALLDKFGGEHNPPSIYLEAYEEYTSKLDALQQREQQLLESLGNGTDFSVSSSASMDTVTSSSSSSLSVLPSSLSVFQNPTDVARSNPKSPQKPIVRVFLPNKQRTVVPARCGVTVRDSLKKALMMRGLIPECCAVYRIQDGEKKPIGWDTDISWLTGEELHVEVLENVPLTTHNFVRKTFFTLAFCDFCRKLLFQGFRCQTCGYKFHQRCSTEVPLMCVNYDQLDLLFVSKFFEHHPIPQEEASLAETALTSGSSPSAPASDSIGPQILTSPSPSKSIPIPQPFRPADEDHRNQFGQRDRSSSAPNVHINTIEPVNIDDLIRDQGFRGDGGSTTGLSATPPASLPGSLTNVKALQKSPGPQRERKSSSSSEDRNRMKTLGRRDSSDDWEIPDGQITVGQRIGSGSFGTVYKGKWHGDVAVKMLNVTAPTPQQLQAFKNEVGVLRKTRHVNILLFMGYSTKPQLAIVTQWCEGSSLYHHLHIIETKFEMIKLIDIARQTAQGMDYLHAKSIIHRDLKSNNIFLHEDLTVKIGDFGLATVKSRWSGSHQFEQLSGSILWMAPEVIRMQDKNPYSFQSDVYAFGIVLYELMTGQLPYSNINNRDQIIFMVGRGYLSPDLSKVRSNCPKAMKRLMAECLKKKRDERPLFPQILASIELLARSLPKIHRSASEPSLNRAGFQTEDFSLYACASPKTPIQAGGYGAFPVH

[6] = biological target: B-Raf V600E (Homo sapiens, UniProt P15056, V600E); test: B-Raf V600E kinase activity assay; assay type: biochemical; conditions: under the test conditions employed; read-out: IC50 toward kinase B-Raf V600E
B-Raf V600E, sequence (P15056 whole entry V600E): as the sequence (P15056 whole entry) above, with V600E counted along it

[7] = biological target: Flt1 (Homo sapiens, UniProt P17948); test: Flt1 kinase activity assay; assay type: biochemical; conditions: under the test conditions employed; read-out: IC50 toward kinase Flt1
Flt1, sequence (P17948 27-1338): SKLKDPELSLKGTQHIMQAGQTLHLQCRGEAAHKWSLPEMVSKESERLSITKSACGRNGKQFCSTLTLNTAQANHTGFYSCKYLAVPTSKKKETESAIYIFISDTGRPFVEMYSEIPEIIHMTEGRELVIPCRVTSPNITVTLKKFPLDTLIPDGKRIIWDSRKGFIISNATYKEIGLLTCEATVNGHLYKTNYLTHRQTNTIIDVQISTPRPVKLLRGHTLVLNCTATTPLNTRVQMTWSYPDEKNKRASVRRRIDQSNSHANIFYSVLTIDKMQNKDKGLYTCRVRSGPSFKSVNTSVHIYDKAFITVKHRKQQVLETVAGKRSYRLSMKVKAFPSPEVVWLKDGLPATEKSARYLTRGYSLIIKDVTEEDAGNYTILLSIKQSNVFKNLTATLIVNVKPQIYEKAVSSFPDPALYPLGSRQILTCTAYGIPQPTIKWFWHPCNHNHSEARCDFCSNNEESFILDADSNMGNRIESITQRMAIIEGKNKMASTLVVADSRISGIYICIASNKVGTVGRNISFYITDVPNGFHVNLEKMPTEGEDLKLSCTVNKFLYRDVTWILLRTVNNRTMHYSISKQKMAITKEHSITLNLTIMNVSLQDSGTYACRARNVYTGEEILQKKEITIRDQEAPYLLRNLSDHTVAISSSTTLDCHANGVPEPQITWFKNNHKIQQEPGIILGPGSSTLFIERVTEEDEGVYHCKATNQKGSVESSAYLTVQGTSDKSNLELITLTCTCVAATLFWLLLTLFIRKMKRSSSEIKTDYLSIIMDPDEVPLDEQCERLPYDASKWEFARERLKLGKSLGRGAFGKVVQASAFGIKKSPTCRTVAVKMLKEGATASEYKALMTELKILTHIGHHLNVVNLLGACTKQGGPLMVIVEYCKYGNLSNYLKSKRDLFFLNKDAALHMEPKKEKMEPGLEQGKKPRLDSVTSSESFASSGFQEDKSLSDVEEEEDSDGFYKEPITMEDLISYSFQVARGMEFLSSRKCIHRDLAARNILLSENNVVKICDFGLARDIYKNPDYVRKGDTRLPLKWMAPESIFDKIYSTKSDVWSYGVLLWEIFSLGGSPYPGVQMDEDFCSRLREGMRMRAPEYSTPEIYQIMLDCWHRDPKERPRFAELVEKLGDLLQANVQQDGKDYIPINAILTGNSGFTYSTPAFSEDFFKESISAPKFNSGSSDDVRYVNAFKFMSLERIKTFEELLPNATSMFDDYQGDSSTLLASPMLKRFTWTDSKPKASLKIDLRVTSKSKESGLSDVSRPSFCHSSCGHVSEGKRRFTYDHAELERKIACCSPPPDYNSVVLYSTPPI

[8] = biological target: T3, TrkA (Homo sapiens, UniProt P04629); test: TrkA biochemical assay (AlphaScreen); conditions: under the test conditions employed; read-out: IC50 toward kinase TrkA
T3 construct: purchased Upstate Biotech 14-571
T3 sequence (P04629 33-796): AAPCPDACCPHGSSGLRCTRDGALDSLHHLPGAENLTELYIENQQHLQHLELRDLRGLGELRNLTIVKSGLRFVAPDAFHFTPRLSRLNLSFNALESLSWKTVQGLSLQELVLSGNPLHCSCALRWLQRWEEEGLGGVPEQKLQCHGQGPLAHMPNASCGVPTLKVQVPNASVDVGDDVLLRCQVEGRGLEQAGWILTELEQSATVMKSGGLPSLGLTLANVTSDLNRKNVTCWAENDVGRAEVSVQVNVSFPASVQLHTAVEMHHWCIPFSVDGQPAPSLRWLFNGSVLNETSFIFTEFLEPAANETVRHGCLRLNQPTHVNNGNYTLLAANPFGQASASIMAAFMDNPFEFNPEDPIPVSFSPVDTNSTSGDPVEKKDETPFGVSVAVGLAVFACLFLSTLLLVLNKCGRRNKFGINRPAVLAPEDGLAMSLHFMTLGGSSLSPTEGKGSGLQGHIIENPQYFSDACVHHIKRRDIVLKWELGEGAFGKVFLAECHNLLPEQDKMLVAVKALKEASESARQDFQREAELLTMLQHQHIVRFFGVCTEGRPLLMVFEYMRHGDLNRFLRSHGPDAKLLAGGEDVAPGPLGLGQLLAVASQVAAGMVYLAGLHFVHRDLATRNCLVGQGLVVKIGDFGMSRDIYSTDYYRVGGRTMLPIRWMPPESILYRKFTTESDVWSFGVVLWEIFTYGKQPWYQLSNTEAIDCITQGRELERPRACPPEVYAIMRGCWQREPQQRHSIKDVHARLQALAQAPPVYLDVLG
Procedure: Compounds tested were dissolved in DMSO (1 μL) and added to a white 384-well plate (Costar #3705). […] Each sample was at 5% DMSO. The plate was then incubated for 40 minutes at room temperature.

[9] = biological target: HGK (Homo sapiens, UniProt O95819); test: HGK (MAP4K4) biochemical assay (AlphaScreen); conditions: under the test conditions employed; read-out: IC50 toward kinase HGK
Procedure: Substrate was 10 nM biotin-ERM (T567/T564/T558, Cell Signaling, Inc., cat#1344). MAP4K4 kinase was at 0.5 ng per sample. After incubation of the kinase reaction for 40 min at room temperature, 5 μl of donor beads and protein A acceptor beads (Perkin Elmer Life Science, cat#67606017) at final concentration 1 μg/ml in stop buffer (20 mM Tris, pH 7.4, 200 mM Nacl, 100 mM EDTA, 0.03% BSA) was added, along with Phospho-ERM Antibody (T567/T564/T558, Cell Signaling, Inc., cat#3141) at 1:1000 dilution. […] Phosphorylated substrate results in binding of the antibody which binds to protein A acceptor bead and association of the donor and acceptor beads is such that the signal correlates with kinase activity.

[10] = biological target: Btk (Homo sapiens, UniProt Q06187); test: Btk kinase activity assay; assay type: biochemical; conditions: under the test conditions employed; read-out: IC50 toward kinase Btk

Measured: IC50

FGFR, sequence (P11362 22-822): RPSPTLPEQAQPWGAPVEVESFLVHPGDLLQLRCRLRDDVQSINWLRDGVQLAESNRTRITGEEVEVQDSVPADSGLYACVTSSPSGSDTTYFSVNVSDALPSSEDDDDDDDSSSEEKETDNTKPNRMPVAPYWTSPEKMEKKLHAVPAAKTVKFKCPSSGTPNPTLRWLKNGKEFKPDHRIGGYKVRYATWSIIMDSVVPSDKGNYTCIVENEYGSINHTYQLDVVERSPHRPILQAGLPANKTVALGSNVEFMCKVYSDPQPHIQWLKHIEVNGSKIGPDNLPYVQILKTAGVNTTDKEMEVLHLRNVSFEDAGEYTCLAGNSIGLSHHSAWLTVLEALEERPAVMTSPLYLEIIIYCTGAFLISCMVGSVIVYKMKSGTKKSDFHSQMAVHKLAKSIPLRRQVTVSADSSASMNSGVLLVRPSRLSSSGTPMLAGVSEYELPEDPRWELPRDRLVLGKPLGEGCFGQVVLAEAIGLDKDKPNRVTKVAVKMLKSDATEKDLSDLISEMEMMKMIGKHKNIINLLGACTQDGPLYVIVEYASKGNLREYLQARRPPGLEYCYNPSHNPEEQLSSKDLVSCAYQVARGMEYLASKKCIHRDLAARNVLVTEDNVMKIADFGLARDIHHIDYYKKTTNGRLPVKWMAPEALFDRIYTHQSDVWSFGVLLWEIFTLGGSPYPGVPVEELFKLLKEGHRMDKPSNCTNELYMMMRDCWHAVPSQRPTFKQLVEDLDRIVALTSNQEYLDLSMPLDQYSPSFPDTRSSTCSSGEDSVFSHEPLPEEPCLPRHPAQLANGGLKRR

COCCOc1ccc(F)c(C(=O)c2c[nH]c3ncccc23)c1Cl [P-2160, [2-Chloro-6-fluoro-3-(2-methoxy-ethoxy)-phenyl]-(1H-pyrrolo[2,3-b]pyridin-3-yl)-methanone]
≤ 10 µM: [1] | [2] | [3] | [4]

COCCOc1ccc(F)c(C(=O)c2c[nH]c3ncc(OC)cc23)c1F [P-1584, [2,6-Difluoro-3-(2-methoxy-ethoxy)-phenyl]-(5-methoxy-1H-pyrrolo[2,3-b]pyridin-3-yl)-methanone]
≤ 10 µM: [5] | [6] | [1] | [7]

COc1cc(Cc2c[nH]c3ncccc23)ccc1OCc1ccc(Cl)cc1F [P-1544, 3-[4-(4-Chloro-2-fluoro-benzyloxy)-3-methoxy-benzyl]-1H-pyrrolo[2,3-b]pyridine]
≤ 10 µM: [5] | [6] | [7] | [2] | [4]

COc1cnc2[nH]cc(Cc3cc(F)c(OCc4nc5ccccc5[nH]4)cc3F)c2c1 [P-2101, 2-[2,5-Difluoro-4-(5-methoxy-1H-pyrrolo[2,3-b]pyridin-3-ylmethyl)-phenoxymethyl]-1H-benzoimidazole]
≤ 10 µM: [7] | [2] | [3] | [4] | [8] | [9]

O=C(c1c(F)ccc(OCc2ccccc2)c1F)c1c[nH]c2ncc(-c3cccnc3)cc12 [P-1467, (3-Benzyloxy-2,6-difluorophenyl)-(5-pyridin-3-yl-1H-pyrrolo[2,3-b]pyridin-3-yl)-methanone]
≤ 10 µM: [5] | [6] | [1] | [7] | [2] | [4]

COc1cc(Cc2c[nH]c3ncc(Cl)cc23)ccc1OCc1ccc(Cl)cc1 [P-1532, 5-Chloro-3-[4-(4-chloro-benzyloxy)-3-methoxy-benzyl]-1H-pyrrolo[2,3-b]pyridine]
≤ 10 µM: [5] | [6] | [7] | [2] | [4]

CS(=O)(=O)c1cnc2[nH]cc(Cc3cc(F)c(OCc4nc5ccccc5[nH]4)cc3F)c2c1 [P-2170, 2-[2,5-Difluoro-4-(5-methanesulfonyl-1H-pyrrolo[2,3-b]pyridin-3-ylmethyl)-phenoxymethyl]-1H-benzoimidazole]
≤ 10 µM: [5] | [7] | [2] | [8] | [9]

Fc1cc(OCc2nc3ccccc3[nH]2)c(F)cc1Cc1c[nH]c2ncc(Cl)cc12 [P-2100, 2-[4-(5-Chloro-1H-pyrrolo[2,3-b]pyridin-3-ylmethyl)-2,5-difluoro-phenoxymethyl]-1H-benzoimidazole]
not listed: [1] | [7] | [10]
≤ 10 µM: all other assays above

COc1cc(Cc2c[nH]c3ncccc23)ccc1OCc1ccccc1 [P-1613, 3-(4-benzyloxy-3-methoxy-benzyl)-1H-pyrrolo[2,3-b]pyridine]
≤ 10 µM: [5] | [6] | [7] | [2]

Cn1cc(-c2cnc3[nH]cc(Cc4c(F)ccc(OCC(F)(F)F)c4Cl)c3c2)cn1 [P-2146, 3-[2-Chloro-6-fluoro-3-(2,2,2-trifluoro-ethoxy)-benzyl]-5-(1-methyl-1H-pyrazol-4-yl)-1H-pyrrolo[2,3-b]pyridine]
≤ 10 µM: [7] | [2] | [3] | [4] | [8] | [9]

COc1cc(Cc2c[nH]c3ncc(S(C)(=O)=O)cc23)c(F)cc1OCc1nc2ccccc2[nH]1 [P-2186, 2-[5-Fluoro-4-(5-methanesulfonyl-1H-pyrrolo[2,3-b]pyridin-3-ylmethyl)-2-methoxy-phenoxymethyl]-1H-benzoimidazole]
≤ 10 µM: [5] | [6] | [2] | [8] | [9]

Cc1nc(C)c(COc2cccc(C(=O)c3c[nH]c4ncc(Cl)cc34)c2OCC2CC2)s1 [P-2140, (5-Chloro-1H-pyrrolo[2,3-b]pyridin-3-yl)-[2-cyclopropylmethoxy-3-(2,4-dimethyl-thiazol-5-ylmethoxy)-phenyl]-methanone]
≤ 10 µM: [10] | [2] | [4]

COc1cnc2[nH]cc(Cc3ccc(OCc4ccc(Cl)cc4)c(OC)c3)c2c1 [P-1531, 3-[4-(4-Chloro-benzyloxy)-3-methoxy-benzyl]-5-methoxy-1H-pyrrolo[2,3-b]pyridine]
≤ 10 µM: [6] | [7] | [4]

COc1cnc2[nH]cc(C(=O)c3c(F)ccc(OCC(F)(F)F)c3Cl)c2c1 [P-2149, [2-Chloro-6-fluoro-3-(2,2,2-trifluoro-ethoxy)-phenyl]-(5-methoxy-1H-pyrrolo[2,3-b]pyridin-3-yl)-methanone]
≤ 10 µM: [7] | [2] | [3] | [4] | [9]

Cn1ccnc1COc1ccc(F)c(C(=O)c2c[nH]c3ncc(Cl)cc23)c1F [P-2165, (5-Chloro-1H-pyrrolo[2,3-b]pyridin-3-yl)-[2,6-difluoro-3-(1-methyl-1H-imidazol-2-ylmethoxy)-phenyl]-methanone]
≤ 10 µM: [5] | [6] | [7] | [2] | [3] | [4]

COc1ccc(COc2ccc(Cc3c[nH]c4ncccc34)cc2OC)cc1 [P-1569, 3-[3-Methoxy-4-(4-methoxy-benzyloxy)-benzyl]-1H-pyrrolo[2,3-b]pyridine]
≤ 10 µM: [5] | [6] | [7] | [2] | [4]

Clc1ccc(COc2ccc(Cc3c[nH]c4ncccc34)cc2)cc1 [P-1462, 3-[4-(4-Chloro-benzyloxy)-benzyl]-1H-pyrrolo[2,3-b]pyridine]
≤ 10 µM: [6] | [7] | [2] | [4]

COc1cnc2[nH]cc(C(=O)c3c(F)ccc(OCc4ccccc4)c3F)c2c1 [P-1597, (3-Benzyloxy-2,6-difluoro-phenyl)-(5-methoxy-1H-pyrrolo[2,3-b]pyridin-3-yl)-methanone]
≤ 10 µM: [5] | [6] | [1] | [7] | [2]

COCCOc1ccc(F)c(C(=O)c2c[nH]c3ncc(Cl)cc23)c1Cl [P-2159, [2-Chloro-6-fluoro-3-(2-methoxy-ethoxy)-phenyl]-(5-chloro-1H-pyrrolo[2,3-b]pyridin-3-yl)-methanone]
≤ 10 µM: [1] | [2] | [3] | [4]
